Target: T1, CgTD (Corynebacterium glutamicum, UniProt Q04513)
T1 construct: gene ilvA; recombinant, expressed in E. coli BL21(DE3) from pETDuet-1 (pETduet-CgTD)
T1 sequence (Q04513 1-436): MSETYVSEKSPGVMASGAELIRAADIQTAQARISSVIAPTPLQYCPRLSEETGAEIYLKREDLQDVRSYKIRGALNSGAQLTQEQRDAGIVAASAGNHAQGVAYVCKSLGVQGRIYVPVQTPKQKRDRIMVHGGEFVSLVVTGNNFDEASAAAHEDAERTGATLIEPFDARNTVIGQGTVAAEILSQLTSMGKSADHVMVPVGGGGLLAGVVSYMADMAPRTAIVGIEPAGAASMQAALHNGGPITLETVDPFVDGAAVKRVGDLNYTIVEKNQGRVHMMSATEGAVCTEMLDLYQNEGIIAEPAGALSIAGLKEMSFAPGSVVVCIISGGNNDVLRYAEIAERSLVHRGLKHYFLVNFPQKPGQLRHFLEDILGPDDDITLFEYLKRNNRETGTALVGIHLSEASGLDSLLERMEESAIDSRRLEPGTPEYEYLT
Experiment: TD activity screen of enzyme expressed in E. coli
Conditions: PLP enzyme; deamination to alpha-keto acid 4a

Compound	TD activity screen of enzyme expressed in E. coli
N[C@H](C(=O)O)C(O)c1ccccc1 (stereo partly drawn) [threo-3a, threo-ʟ-phenylserine]	the TD activities toward both threo- and erythro-ʟ-phenylserine (threo/erythro-3a) were tested
N[C@H](C(=O)O)[C@@H](O)c1ccccc1 [erythro-3a, erythro-ʟ-phenylserine]	only TD from Corynebacterium glutamicum (CgTD) showed activities toward both configurations

— article PMC6145935, “Asymmetric assembly of high-value α-functionalized organic acids using a biocatalytic chiral-group-resetting process” (Nature Communications, 2018)
